Assay results from patent US9284580B2 (priority 2010, dated 2016).
Read-outs that look alike come from different tables or passages of the source.

Key:
S. cerevisiae strains = conditions: 1% (v/v) butanol; most S. cerevisiae strains; cited from earlier work
E. coli = conditions: 2% (v/v) butanol; cited from earlier work
P. putida = conditions: several strains of P. putida; cited from earlier work
[1] = tested on: C. beijerinckii ATCC 55025
Text: Cell growth was monitored by measuring the optical density at 600 nm (OD600) of the culture broth.

butanol
relative specific growth rate (S. cerevisiae strains): 60% | growth (E. coli): no growth was observed | tolerated butanol concentration (P. putida): up to 6 % (w/v) | growth rate reduction ([1]; 1% (v/v) butanol): ~20% | growth rate reduction ([1]; 1.5% (v/v) butanol): ~85% | cell growth ([1]; 2% (v/v) butanol, no cell growth even after 10 days incubation): completely inhibited
